Laboratory results: patent US11331299B2, “Medicinal use of serrulatane diterpenes” (The University of Sydney, priority 2016, dated 2022)
Like-named read-outs stand apart in the source and are kept apart here.

System: 280 human cancer cell lines
Assay: OncoPanel cell proliferation assay (10-day)
Format: cell-based
Settings: for EC50: read-out: Cell Count EC50; for IC50: read-out: Cell Count IC50
[1] = Homo sapiens, 22Rv1, 22Rv1, Prostate
[2] = Homo sapiens, 786-0, 786-O, Kidney
[3] = Homo sapiens, A7, Skin (Melanoma)
[4] = Homo sapiens, A101D, Skin (Melanoma)
[5] = Homo sapiens, A 172, A172, CNS - Glioma
[6] = Homo sapiens, A253, A-253, Head and Neck
[7] = Homo sapiens, A388, Head and Neck
[8] = Homo sapiens, A498, A498, Kidney
[9] = Homo sapiens, A673, A-673, Soft Tissue - Sarcoma
[10] = Homo sapiens, A704, A-704, Kidney
[11] = Homo sapiens, A-375, A375, Skin (Melanoma)
[12] = Homo sapiens, A-427, A427, Lung - NSCLC
[13] = Homo sapiens, A-431, A431, Head and Neck
[14] = Homo sapiens, AN3-CA, AN3 CA, Female GU - Uterus
[15] = Homo sapiens, ARH-77, ARH-77, Myeloma
[16] = Homo sapiens, ASPC1, AsPC-1, Pancreas
[17] = Homo sapiens, AU565, AU565, Breast
[18] = Homo sapiens, BCP-1, BCP-1, Lymphoma
[19] = Homo sapiens, BE(2)-C, BE(2)C, CNS - Neuroblastoma
[20] = Homo sapiens, BFTC-905, BFTC-905, Bladder
[21] = Homo sapiens, BHT-101, BHT-101, Endocrine - Thyroid
[22] = Homo sapiens, BM-1604, BM-1604, Prostate
[23] = Homo sapiens, BPH-1, BPH1, Prostate
[24] = Homo sapiens, BT-20, BT20, Breast

**Q.** With `CC(C)=CCC[C@@H]1C(O)Oc2c(C)cc(O)c3c2[C@H]1CC[C@H]3C` (stereo partly shown) [Compound 2, 5,18-epoxyserrulat-14-en-8,18-diol] as the compound, how does the “Number of cell types, GI Activity Potent” value (GI50 range 0.03-0.099 μM, of 280 cell types) read?
**A.** 1

**Q.** And the “Number of cell types, GI Activity moderately potent” value (GI50 range 0.1-0.99 μM, of 280 cell types)?
**A.** 1

**Q.** And the “Number of cell types, GI Activity Strong” value (GI50 range 1-2.99 μM, of 280 cell types)?
**A.** 8

**Q.** And the “Number of cell types, GI Activity moderately strong” value (GI50 range 3-9.99 μM, of 280 cell types)?
**A.** 110

**Q.** And the “Number of cell types, GI Activity weak” value (GI50 range 10-30.00 μM, of 280 cell types)?
**A.** 118

**Q.** And the “Number of cell types, GI Activity very weak” value (GI50 range >30 μM, of 280 cell types)?
**A.** 42

**Q.** And the GI50 (Homo sapiens, 10 cell lines with potent to strong activity, read-out: GI50)?
**A.** 0.06 to 2.96 µM

**Q.** And the EC50 [1]?
**A.** 11.4 µM

**Q.** And the GI50 (Homo sapiens, 22Rv1, 22Rv1, Prostate, read-out: Cell Count GI50)?
**A.** 11.3 µM

**Q.** What about the IC50 [1] of the same compound?
**A.** 11.4 µM

**Q.** And the EC50 (Homo sapiens, 647-V, Bladder)?
**A.** 11.3 µM

**Q.** What about the GI50 (Homo sapiens, 647-V, Bladder, read-out: Cell Count GI50) of the same compound?
**A.** 11.2 µM

**Q.** What about the IC50 (Homo sapiens, 647-V, Bladder) of the same compound?
**A.** 11.3 µM

**Q.** What about the EC50 (Homo sapiens, 769-P, Kidney) of the same compound?
**A.** 6.95 µM

**Q.** What about the GI50 (Homo sapiens, 769-P, Kidney, read-out: Cell Count GI50) of the same compound?
**A.** 6.94 µM

**Q.** And the IC50 (Homo sapiens, 769-P, Kidney)?
**A.** 6.95 µM

**Q.** What about the EC50 [2] of the same compound?
**A.** 27.9 µM

**Q.** What about the GI50 (Homo sapiens, 786-0, 786-O, Kidney, read-out: Cell Count GI50) of the same compound?
**A.** 27.9 µM

**Q.** What about the IC50 [2] of the same compound?
**A.** 27.9 µM

**Q.** And the EC50 (Homo sapiens, 5637, Bladder)?
**A.** > 30 µM

**Q.** What about the GI50 (Homo sapiens, 5637, Bladder, read-out: Cell Count GI50) of the same compound?
**A.** > 30 µM

**Q.** What about the IC50 (Homo sapiens, 5637, Bladder) of the same compound?
**A.** > 30 µM

**Q.** What about the EC50 [3] of the same compound?
**A.** 5.54 µM

**Q.** What about the GI50 (Homo sapiens, A7, Skin (Melanoma), read-out: Cell Count GI50) of the same compound?
**A.** 5.6 µM

**Q.** And the IC50 [3]?
**A.** 5.63 µM

**Q.** And the EC50 [4]?
**A.** > 30 µM

**Q.** What about the GI50 (Homo sapiens, A101D, Skin (Melanoma), read-out: Cell Count GI50) of the same compound?
**A.** > 30 µM

**Q.** And the IC50 [4]?
**A.** > 30 µM

**Q.** And the EC50 [5]?
**A.** 9.02 µM

**Q.** And the GI50 (Homo sapiens, A 172, A172, CNS - Glioma, read-out: Cell Count GI50)?
**A.** 8.93 µM

**Q.** And the IC50 [5]?
**A.** 9.02 µM

**Q.** And the EC50 [6]?
**A.** 28.5 µM

**Q.** And the GI50 (Homo sapiens, A253, A-253, Head and Neck, read-out: Cell Count GI50)?
**A.** 28.7 µM

**Q.** And the IC50 [6]?
**A.** 28.7 µM

**Q.** And the EC50 [7]?
**A.** 13.5 µM

**Q.** And the GI50 (Homo sapiens, A388, Head and Neck, read-out: Cell Count GI50)?
**A.** 13.4 µM

**Q.** What about the IC50 [7] of the same compound?
**A.** 13.5 µM

**Q.** And the EC50 [8]?
**A.** 13.3 µM

**Q.** And the GI50 (Homo sapiens, A498, A498, Kidney, read-out: Cell Count GI50)?
**A.** 13.2 µM

**Q.** What about the IC50 [8] of the same compound?
**A.** 13.3 µM

**Q.** What about the EC50 (Homo sapiens, A549, A549, Lung - NSCLC) of the same compound?
**A.** 22 µM

**Q.** And the GI50 (Homo sapiens, A549, A549, Lung - NSCLC, read-out: Cell Count GI50)?
**A.** 21.9 µM

**Q.** And the EC50 [9]?
**A.** 10.8 µM

**Q.** What about the GI50 (Homo sapiens, A673, A-673, Soft Tissue - Sarcoma, read-out: Cell Count GI50) of the same compound?
**A.** 11.1 µM

**Q.** And the IC50 [9]?
**A.** 11.1 µM

**Q.** And the EC50 [10]?
**A.** > 30 µM

**Q.** What about the GI50 (Homo sapiens, A704, A-704, Kidney, read-out: Cell Count GI50) of the same compound?
**A.** > 30 µM

**Q.** What about the IC50 [10] of the same compound?
**A.** > 30 µM

**Q.** And the EC50 [11]?
**A.** 6.45 µM

**Q.** What about the GI50 (Homo sapiens, A-375, A375, Skin (Melanoma), read-out: Cell Count GI50) of the same compound?
**A.** 6.44 µM

**Q.** What about the IC50 [11] of the same compound?
**A.** 6.45 µM

**Q.** And the EC50 [12]?
**A.** 11.2 µM

**Q.** And the GI50 (Homo sapiens, A-427, A427, Lung - NSCLC, read-out: Cell Count GI50)?
**A.** 11.2 µM

**Q.** And the IC50 [12]?
**A.** 11.2 µM

**Q.** And the EC50 [13]?
**A.** > 30 µM

**Q.** What about the GI50 (Homo sapiens, A-431, A431, Head and Neck, read-out: Cell Count GI50) of the same compound?
**A.** > 30 µM

**Q.** What about the IC50 [13] of the same compound?
**A.** > 30 µM

**Q.** What about the EC50 (Homo sapiens, ACHN, Kidney) of the same compound?
**A.** 8.79 µM

**Q.** What about the GI50 (Homo sapiens, ACHN, Kidney, read-out: Cell Count GI50) of the same compound?
**A.** 8.76 µM

**Q.** What about the IC50 (Homo sapiens, ACHN, Kidney) of the same compound?
**A.** 8.79 µM

**Q.** And the EC50 (Homo sapiens, AGS, Stomach)?
**A.** 4.69 µM

**Q.** And the GI50 (Homo sapiens, AGS, Stomach, read-out: Cell Count GI50)?
**A.** 4.69 µM

**Q.** And the IC50 (Homo sapiens, AGS, Stomach)?
**A.** 4.69 µM

**Q.** And the EC50 [14]?
**A.** 11.3 µM

**Q.** What about the GI50 (Homo sapiens, AN3-CA, AN3 CA, Female GU - Uterus, read-out: Cell Count GI50) of the same compound?
**A.** 11.1 µM

**Q.** What about the IC50 [14] of the same compound?
**A.** 11.3 µM

**Q.** What about the EC50 [15] of the same compound?
**A.** 9.5 µM

**Q.** And the GI50 (Homo sapiens, ARH-77, ARH-77, Myeloma, read-out: Cell Count GI50)?
**A.** 9.57 µM

**Q.** And the IC50 [15]?
**A.** 9.6 µM

**Q.** What about the EC50 [16] of the same compound?
**A.** 14.1 µM

**Q.** And the GI50 (Homo sapiens, ASPC1, AsPC-1, Pancreas, read-out: Cell Count GI50)?
**A.** 13.8 µM

**Q.** What about the IC50 [16] of the same compound?
**A.** 14.1 µM

**Q.** And the EC50 [17]?
**A.** 6.4 µM

**Q.** What about the GI50 (Homo sapiens, AU565, AU565, Breast, read-out: Cell Count GI50) of the same compound?
**A.** 6.29 µM

**Q.** And the IC50 [17]?
**A.** 6.4 µM

**Q.** And the EC50 (Homo sapiens, BC-1, Lymphoma)?
**A.** 7.95 µM

**Q.** What about the GI50 (Homo sapiens, BC-1, Lymphoma, read-out: Cell Count GI50) of the same compound?
**A.** 7.93 µM

**Q.** And the IC50 (Homo sapiens, BC-1, Lymphoma)?
**A.** 7.95 µM

**Q.** What about the EC50 [18] of the same compound?
**A.** 8.48 µM

**Q.** What about the GI50 (Homo sapiens, BCP-1, BCP-1, Lymphoma, read-out: Cell Count GI50) of the same compound?
**A.** 8.4 µM

**Q.** And the IC50 [18]?
**A.** 8.48 µM

**Q.** And the EC50 [19]?
**A.** 6.91 µM

**Q.** And the GI50 (Homo sapiens, BE(2)-C, BE(2)C, CNS - Neuroblastoma, read-out: Cell Count GI50)?
**A.** 7.48 µM

**Q.** And the IC50 [19]?
**A.** 7.52 µM

**Q.** And the EC50 [20]?
**A.** 8.03 µM

**Q.** And the GI50 (Homo sapiens, BFTC-905, BFTC-905, Bladder, read-out: Cell Count GI50)?
**A.** 8.01 µM

**Q.** What about the IC50 [20] of the same compound?
**A.** 8.03 µM

**Q.** What about the EC50 [21] of the same compound?
**A.** 14 µM

**Q.** And the GI50 (Homo sapiens, BHT-101, BHT-101, Endocrine - Thyroid, read-out: Cell Count GI50)?
**A.** 13.9 µM

**Q.** What about the IC50 [21] of the same compound?
**A.** 14 µM

**Q.** And the EC50 [22]?
**A.** 19.1 µM

**Q.** What about the GI50 (Homo sapiens, BM-1604, BM-1604, Prostate, read-out: Cell Count GI50) of the same compound?
**A.** 18.9 µM

**Q.** And the IC50 [22]?
**A.** 19.1 µM

**Q.** What about the EC50 [23] of the same compound?
**A.** > 30 µM

**Q.** And the GI50 (Homo sapiens, BPH-1, BPH1, Prostate, read-out: Cell Count GI50)?
**A.** > 30 µM

**Q.** And the IC50 [23]?
**A.** > 30 µM

**Q.** What about the EC50 [24] of the same compound?
**A.** 12.2 µM

**Q.** And the GI50 (Homo sapiens, BT-20, BT20, Breast, read-out: Cell Count GI50)?
**A.** 12.3 µM

**Q.** And the IC50 [24]?
**A.** 12.7 µM

**Q.** And the EC50 (Homo sapiens, BT-474, BT474, Breast)?
**A.** > 30 µM
